# Reference: US4237068A, “Primary aminoacylanilides” (priority 1978, dated 1980)
# Like-named read-outs stand apart in the source and are kept apart here.
# Key:
# [1] = Antifibrillatory effect in mice: protection against chloroform-induced ventricular fibrillation, oral (Table I); format: in vivo, female Swiss albino mice (HAM/ICR)
# Protocol: (§1) The experiments on mice were performed according to a modification of the method described by J. W. Lawson, "Antiarrhythmic activity of some isoquinoline derivatives determined by a rapid screening procedure in the mouse," J. Pharm. Exp. Therap. Vol. 160, pp. 22-31 (1968). This method is based upon the observation that when an unanesthetized, untreated mouse is exposed to chloroform vapor its respiration soon ceases and at that time both electrocardiographic and visual inspection reveal that the cardiac ventricles are fibrillating. If the mouse is treated appropriately with known antiarrhythmic agents prior to exposure to chloroform, the respiratory failure is not accompanied by ventricular fibrillation.
# mice = assay: Ataxia in mice just before CHCl3 challenge, oral (Table I); format: in vivo; settings: LD0.1 dose
# Source text: Immediately after cessation of respiration each mouse was removed from the beaker, its thorax was opened and its heart was examined for the presence of absence of ventricular fibrillation. The nature of the cardiac rhythm was then confirmed by electrocardiographic recordings. Whenever fibrillation was not evident, the heart was touched with forceps. The heart was considered as fibrillating if fine tremulous movements were present on the surface of the ventricle and persisted for at least 5 seconds after the thoracotomy or the mechanical stimulus. Ventricular fibrillation was considered absent in those animals in which coordinated ventricular activity was evident following such procedures.
# [2] = Ventricular arrhythmias in unanesthetized dogs after coronary artery ligation (modified Harris method), 3-amino-2',6'-butyroxylidide (Table VI); format: in vivo
# Source text: (§2) Vol. 1, pp. 1318-1328 (1950). […] The electrocardiographic, cardiovascular and other drug effects were monitored.
# The electrocardiographic, cardiovascular and other drug effects were monitored.
# [3] = Relative potency against chloroform induced fibrillation in mice, subcutaneous (Table IV); format: in vivo; settings: 20 min, statistical mean (confidence limits)
# Protocol: as §1
# The procedure used was a modification of the method previously described. The modification involved using a standard time of 20 minutes for each test run and four different doses of the same drug. Route of administration was subcutaneous.
# [4] = mouse, in vivo
# frog sciatic nerve = assay: In vitro local anesthetic effect on frog sciatic nerve; settings: 20 mM solution, after exposure for 96 min
# [5] = Response of unanesthetized dogs to intravenous infusion on first day after coronary artery ligation (Table III)
# Protocol: In this method the dogs were anesthetized, the heart was exposed, and the anterior descending branch of the left coronary artery was ligated in two stages. The thorax was closed and the dog was allowed to recover from the anesthesia. […] The electrocardiographic, cardiovascular and other drug effects were monitored.
# The dosage schedule was: 1st hr.: 15 mg/kg/hr; 2nd hr.: 30 mg/kg/hr; 3rd hr.: 60 mg/kg/hr. Infusions were stopped at the first sign of toxicity other than emesis.
# [6] = Expected antiarrhythmic oral dosage in humans; format: in vivo
# [7] = format: in vivo, dogs; settings: for Overt toxicity: convulsions, onset / Overt toxicity: emesis / Overt toxicity: nystagmus / Overt toxicity: other / Overt toxicity: tremors / Overt toxicity: convulsions, duration: po
# Source text: as §2
# [8] = cited from earlier work
# [9] = intravenous, first day after ligation
# [10] = oral and intravenous doses, unanesthetized dogs
# [11] = i.v. infusion, cumulative, one value per dog
smiles,measurement,setting,value
CCN(CC)CCNC(=O)c1ccc(N)cc1 [PROCAINAMIDE],Proportion of mice in each group protected against fibrillation at LD0.1,[1]; 5 min before CHCl3 challenge,0/10
same,Proportion of mice in each group protected against fibrillation at LD0.1,[1]; 10 min before CHCl3 challenge,1/10
same,Proportion of mice in each group protected against fibrillation at LD0.1,[1]; 20 min before CHCl3 challenge,0/10
same,Proportion of mice in each group having ataxia just before CHCl3 challenge,mice; 5 min,0/10
same,Proportion of mice in each group having ataxia just before CHCl3 challenge,mice; 10 min,0/10
same,Proportion of mice in each group having ataxia just before CHCl3 challenge,mice; 20 min,0/10
"Cc1cccc(C)c1NC(=O)CC(C)N (centres unmarked) [3-amino-2',6'-butyroxylidide]",adverse reactions,"[2]; dog, in vivo",unaccompanied by any discernible adverse reactions
same,Toxicity: convulsions,[2]; [9],None
same,Toxicity: deaths,[2]; [9],None
same,suppression of the ventricular arrhythmias,[2]; [10],distinct suppression of the ventricular arrhythmias
same,Relative potency (ED50 test compound/ED50 lidocaine),[3],0.99 (0.60-1.9)
CCNC(C)C(=O)Nc1c(C)cc(C)cc1C (centres unmarked) [secondary amine],ataxia incidence,[4],100%
same,convulsions incidence,[4],90%
C=C[C@H]1C[N@@]2CC[C@H]1C[C@@H]2[C@@H](O)c1ccnc2ccc(OC)cc12 [QUINIDINE],Proportion of mice in each group protected against fibrillation at LD0.1,[1]; 20 min before CHCl3 challenge,10/10
same,Proportion of mice in each group protected against fibrillation at LD0.1,[1]; 40 min before CHCl3 challenge,9/9
same,Proportion of mice in each group protected against fibrillation at LD0.1,[1]; 80 min before CHCl3 challenge,9/9
same,Proportion of mice in each group having ataxia just before CHCl3 challenge,mice; 20 min,0/10
same,Proportion of mice in each group having ataxia just before CHCl3 challenge,mice; 40 min,2/10
same,death,mice; 40 min group,1 death
same,death,mice; 80 min group,1 death
"Cc1cccc(C)c1NC(=O)C(C)N (racemic) [2-amino-2',6'-propionoxylidide]",block of the action potential of the nerve,frog sciatic nerve,does not block the action potential at all
same,convulsions incidence,[4]; 251 mg/kg,34%
same,Proportion of mice in each group protected against fibrillation at LD0.1,[1]; 20 min before CHCl3 challenge,9/10
same,Proportion of mice in each group protected against fibrillation at LD0.1,[1]; 40 min before CHCl3 challenge,9/10
same,Proportion of mice in each group protected against fibrillation at LD0.1,[1]; 80 min before CHCl3 challenge,10/10
same,Proportion of mice in each group protected against fibrillation at LD0.1,[1]; 160 min before CHCl3 challenge,9/10
same,Toxic doses (cumul.),[5]; [11],81 mg/kg
same,Relative potency (ED50 test compound/ED50 lidocaine),[3],0.33 (0.20-0.54)
same,dosage that should be effective for humans,[6],about 6 grams/day
same,Proportion of mice in each group having ataxia just before CHCl3 challenge,mice; 20 min,10/10
same,Proportion of mice in each group having ataxia just before CHCl3 challenge,mice; 40 min,10/10
same,Proportion of mice in each group having ataxia just before CHCl3 challenge,mice; 80 min,8/10
same,Proportion of mice in each group having ataxia just before CHCl3 challenge,mice; 160 min,5/10
same,adverse reactions,"[7]; dog, in vivo",unaccompanied by any discernible adverse reactions
same,"Overt toxicity: convulsions, onset","[7]; dog, in vivo, 50 mg/kg",None
same,Overt toxicity: emesis,"[7]; dog, in vivo, 50 mg/kg",None
same,Overt toxicity: nystagmus,"[7]; dog, in vivo, 50 mg/kg",None
same,Overt toxicity: other,"[7]; dog, in vivo, 50 mg/kg",None
same,Overt toxicity: tremors,"[7]; dog, in vivo, 50 mg/kg",None
same,"Overt toxicity: convulsions, onset","[7]; dog, in vivo, 100 mg/kg",None
same,Overt toxicity: emesis,"[7]; dog, in vivo, 100 mg/kg",None
same,Overt toxicity: nystagmus,"[7]; dog, in vivo, 100 mg/kg",None
same,Overt toxicity: other,"[7]; dog, in vivo, 100 mg/kg",None
same,Overt toxicity: tremors,"[7]; dog, in vivo, 100 mg/kg",None
same,"Overt toxicity: convulsions, onset","[7]; dog, in vivo, 150 mg/kg",None
same,Overt toxicity: nystagmus,"[7]; dog, in vivo, 150 mg/kg",None
same,Overt toxicity: other,"[7]; dog, in vivo, 150 mg/kg",None
same,Overt toxicity: tremors,"[7]; dog, in vivo, 150 mg/kg",None
same,"Overt toxicity: convulsions, duration","[7]; dog, in vivo, 200 mg/kg",> 3 min
same,Overt toxicity: nystagmus,"[7]; dog, in vivo, 200 mg/kg",None
same,Overt toxicity: other,"[7]; dog, in vivo, 200 mg/kg",None
same,"Overt toxicity: convulsions, duration","[7]; dog, in vivo, 300 mg/kg",17 min
same,"Overt toxicity: convulsions, onset","[7]; dog, in vivo, 300 mg/kg",None
same,Overt toxicity: emesis,"[7]; dog, in vivo, 300 mg/kg",None
same,Overt toxicity: nystagmus,"[7]; dog, in vivo, 300 mg/kg",None
same,Overt toxicity: other,"[7]; dog, in vivo, 300 mg/kg",None
same,Overt toxicity: tremors,"[7]; dog, in vivo, 300 mg/kg",None
same,suppression of the ventricular arrhythmias,[7]; [10],distinct suppression of the ventricular arrhythmias
same,"Maximum antiarrhythmic activity, partial clearing, onset","[7]; oral, cumul. dose 50 mg/kg as HCl, 50-95% reduction of abnormal ventricular beats",None
"CCN(CC)CC(=O)Nc1c(C)cccc1C [lidocaine, 2-diethylamino-2',6'-acetoxylidide]",Proportion of mice in each group protected against fibrillation at LD0.1,[1]; 10 min before CHCl3 challenge,9/10
same,Proportion of mice in each group protected against fibrillation at LD0.1,[1]; 20 min before CHCl3 challenge,10/10
same,Proportion of mice in each group protected against fibrillation at LD0.1,[1]; 40 min before CHCl3 challenge,7/10
same,Proportion of mice in each group protected against fibrillation at LD0.1,[1]; 80 min before CHCl3 challenge,0/10
same,minimal effective dose,"[5]; Canis lupus familiaris, iv, read-out: Antiarrhythmic doses (cumul.), i.v. infusion, cumulative, one value per dog",36 mg/kg
same,Antiarrhythmic doses (cumul.),[5]; [11],55 mg/kg
same,Number of dogs showing antiarrhythmic effect,"[5]; i.v. infusion, dogs tested: lidocaine 2, 2-amino-2',6'-propionoxylidide 1, abnormal beats < 5% of total",2
same,Duration of antiarrhythmic effect,"[5]; i.v. infusion, return of 50% of suppressed abnormal ventricular beats, one value per dog",5 min
same,Proportion of mice in each group having ataxia just before CHCl3 challenge,mice; 10 min,0/10
same,Proportion of mice in each group having ataxia just before CHCl3 challenge,mice; 20 min,9/10
same,Proportion of mice in each group having ataxia just before CHCl3 challenge,mice; 40 min,0/10
same,Proportion of mice in each group having ataxia just before CHCl3 challenge,mice; 80 min,0/10
same,duration of blood levels,[8]; lidocaine,fairly short
same,oral effectiveness,"[8]; oral, due to low levels of the drug in the blood",not orally effective
same,loss of the drug after oral administration,"[8]; oral, probably due to the functions of the liver",pronounced loss of the drug
